From ChEMBL document CHEMBL1201862, “PubChem BioAssay data set” (2004)
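These data come from cells grown in 96-well plates and exposed to compound for 48 hours at five concentrations. Abbreviation: GI50, concentration required for 50% inhibition of growth.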 The source made the active and inactive calls. No stated cut-off is given here; in the data, active = GI50 up to about 1.1 µM and inactive = higher.

Key:
Experiment in all cases: growth of human tumour cells (NCI), 48 h
[1] = tested on: HL-60
[2] = tested on: OVCAR-5
[3] = tested on: A498
[4] = tested on: T47D
[5] = tested on: 786-0
[6] = tested on: NCI/ADR-RES
[7] = tested on: Hs-578T
[8] = tested on: COLO 205
[9] = tested on: MOLT-4
[10] = tested on: SF-295
[11] = tested on: PC-3
[12] = tested on: SNB-19
[13] = tested on: MDA-MB-435
[14] = tested on: HCT-116
[15] = tested on: HOP-62
[16] = tested on: M14
[17] = tested on: IGROV-1
[18] = tested on: LOX IMVI
[19] = tested on: BT-549

For `COc1ccc(/C=C/C(=O)C(C)(C)Br)cc1`, the GI50 [1] was 19.5 µM (inactive), the GI50 [2] was 12 µM (inactive) and the GI50 [3] was 20 µM (inactive). The GI50 [4] was 20.8 µM (inactive), the GI50 [5] was 3.48 µM (inactive) and the GI50 [6] was 24 µM (inactive). For the same compound, the GI50 [7] was 16.3 µM (inactive), the GI50 [8] was 15 µM (inactive) and the GI50 [9] was 3.86 µM (inactive). The GI50 [10] was 17.9 µM (inactive), the GI50 [11] was 11.7 µM (inactive) and the GI50 [12] was 25.8 µM (inactive). For the same compound, the GI50 [13] was 11.5 µM (inactive), the GI50 [14] was 2.19 µM (inactive) and the GI50 [15] was 6.3 µM (inactive). The GI50 [16] was 1.56 µM (inactive), the GI50 [17] was 1.71 µM (inactive) and the GI50 [18] was 7.33 µM (inactive). For the same compound, the GI50 [19] was 1.92 µM (inactive).

For `COc1ccc2[nH]c(C(=O)N3CC(CCl)c4ccc([N+](=O)[O-])cc43)cc2c1` (centres undefined), the GI50 [1] was > 100 µM (inactive), the GI50 [2] was > 100 µM (inactive) and the GI50 [3] was > 100 µM (inactive). For the same compound, the GI50 [4] was > 21.6 µM (inactive), the GI50 [5] was > 100 µM (inactive) and the GI50 [6] was > 100 µM (inactive). The GI50 [7] was 37 µM (inactive), the GI50 [8] was > 100 µM (inactive) and the GI50 [9] was > 100 µM (inactive). For the same compound, the GI50 [10] was > 100 µM (inactive), the GI50 [11] was > 100 µM (inactive) and the GI50 [12] was > 100 µM (inactive). For the same compound, the GI50 [13] was > 100 µM (inactive), the GI50 [14] was > 100 µM (inactive) and the GI50 [15] was > 100 µM (inactive). The GI50 [16] was > 100 µM (inactive), the GI50 [17] was 64.1 µM (inactive) and the GI50 [18] was > 100 µM (inactive). For the same compound, the GI50 [19] was > 100 µM (inactive).

In the case of `O=C(CCc1ccc(O)c(O)c1)NCCc1cc(OCc2ccccc2)cc(OCc2ccccc2)c1`, the GI50 [1] is reported as 2.51 µM (inactive), the GI50 [2] is reported as 13.1 µM (inactive) and the GI50 [3] is reported as 15.7 µM (inactive). For the same compound, the GI50 [4] was 16.4 µM (inactive), the GI50 [5] was 13.3 µM (inactive) and the GI50 [6] was 13.1 µM (inactive). For the same compound, the GI50 [7] was 9.29 µM (inactive), the GI50 [8] was 2.81 µM (inactive) and the GI50 [9] was 2.52 µM (inactive). For the same compound, the GI50 [10] was 18.1 µM (inactive), the GI50 [11] was 8.09 µM (inactive) and the GI50 [12] was 3.71 µM (inactive). For the same compound, the GI50 [13] was 12.2 µM (inactive), the GI50 [14] was 11.8 µM (inactive) and the GI50 [15] was 13.1 µM (inactive). For the same compound, the GI50 [16] was 12.1 µM (inactive), the GI50 [17] was 5.93 µM (inactive) and the GI50 [18] was 10.4 µM (inactive). The GI50 [19] was 6.07 µM (inactive).

`COC1=CC(=O)C2=C(C[C@@]3(C)C(=C2)C(CO)=CC[C@H]3O)C1=O` was tested, and the GI50 [1] was 1.79 µM (inactive), the GI50 [2] was 27 µM (inactive) and the GI50 [3] was > 100 µM (inactive). The GI50 [4] was 24.6 µM (inactive), the GI50 [5] was 20.7 µM (inactive) and the GI50 [6] was 23.5 µM (inactive). The GI50 [7] was 30.9 µM (inactive), the GI50 [8] was 27.5 µM (inactive) and the GI50 [9] was 0.0975 µM (active). For the same compound, the GI50 [10] was 22 µM (inactive), the GI50 [11] was 28.2 µM (inactive) and the GI50 [12] was 68.1 µM (inactive). The GI50 [13] was 20.7 µM (inactive), the GI50 [14] was 18.7 µM (inactive) and the GI50 [15] was 25.2 µM (inactive). The GI50 [16] was 21.8 µM (inactive), the GI50 [17] was 14.6 µM (inactive) and the GI50 [18] was 17.1 µM (inactive). The GI50 [19] was 19.2 µM (inactive).

For `NC12CC3CC4C1CC1CC2C(C3)C4(N)C1`, the GI50 [1] was > 100 µM (inactive), the GI50 [2] was > 100 µM (inactive) and the GI50 [3] was > 100 µM (inactive). For the same compound, the GI50 [4] was > 100 µM (inactive), the GI50 [5] was > 100 µM (inactive) and the GI50 [6] was > 100 µM (inactive). The GI50 [7] was > 100 µM (inactive), the GI50 [8] was > 100 µM (inactive) and the GI50 [9] was > 100 µM (inactive). For the same compound, the GI50 [10] was > 100 µM (inactive), the GI50 [11] was > 100 µM (inactive) and the GI50 [12] was > 100 µM (inactive). The GI50 [13] was > 100 µM (inactive), the GI50 [14] was > 100 µM (inactive) and the GI50 [15] was > 100 µM (inactive). For the same compound, the GI50 [16] was > 100 µM (inactive), the GI50 [17] was > 100 µM (inactive) and the GI50 [18] was > 100 µM (inactive). The GI50 [19] was > 100 µM (inactive).

With `Cc1ccc(-n2cnc3c(N/N=C4\SCC(=O)N4c4ccccc4)ncnc32)cc1` the GI50 [1] was 1.41 µM (inactive), the GI50 [2] was 12.2 µM (inactive) and the GI50 [3] was 14.2 µM (inactive). For the same compound, the GI50 [4] was 3.97 µM (inactive), the GI50 [5] was 3.15 µM (inactive) and the GI50 [6] was 8.36 µM (inactive). For the same compound, the GI50 [7] was 3.85 µM (inactive), the GI50 [8] was 4.98 µM (inactive) and the GI50 [9] was 1.82 µM (inactive). For the same compound, the GI50 [10] was 13.3 µM (inactive), the GI50 [11] was 3.3 µM (inactive) and the GI50 [12] was 11.7 µM (inactive). For the same compound, the GI50 [13] was 2.02 µM (inactive), the GI50 [14] was 2.63 µM (inactive) and the GI50 [15] was 15.2 µM (inactive). The GI50 [16] was 3.66 µM (inactive), the GI50 [17] was 4 µM (inactive) and the GI50 [18] was 2.54 µM (inactive). For the same compound, the GI50 [19] was 3.85 µM (inactive).
